From patent US20200071380A1, “COMBINATION THERAPIES COMPRISING SIRP ALPHA-BASED CHIMERIC PROTEINS” (Shattuck Labs, Inc., priority 2018, published 2020)

Assays:
[1] = tested on: macrophages co-cultured with Toledo lymphoma cells; test: qRT-PCR of macrophages sorted from Toledo lymphoma co-cultures; assay type: cell-based, human; details: qRT-PCR on macrophages isolated by FACS from Toledo co-cultures
Description: FIG. 8D: Macrophage:Toledo lymphoma co-cultures were harvested 2 hours into phagocytosis assays in the presence of rituximab ([…]), SIRPα-Fc-CD40L ([…]), or the combination of both agents. Macrophages were isolated by CD11b+FACS, RNA was prepared, cDNA synthesized, and gene expression (IFNa1, IFNb1, CD80, and CD86) assessed by qRT-PCR. Fold change was calculated using DDCT and values obtained from the housekeeping gene ACTB, and the corresponding values from untreated samples. […] After 2 hours, co-cultures were isolated from tissue culture vessels and were stained with a fluorescently conjugated CD11b antibody to discriminate macrophages. Cells were then assessed by flow cytometry for the co-localization of fluorescent signal from both cells types. […] After 24-hours type I interferon induced luminescence was assessed using a luminometer. The maximum luminescence (RLU) from each experiment was set to 1, and all other samples were normalized accordingly. […]
RNA was prepared from macrophages isolated using fluorescent activated cell sorting (FACS) from SIRPα-Fc-CD40L/Rituximab treated co-cultures macrophages and Toledo lymphoma cells. The RNA was assessed by gRT-PCR for expression of IFNα1 and IFNβ1, and the macrophage activation markers CD80 and CD86.

[2] = target: recombinant hCD47 and recombinant hCD40 (Homo sapiens, UniProt P25942+Q08722); test: Functional dual ELISA, hCD40 capture and hCD47-His detection; assay type: binding
[3] = tested on: splenic dendritic cells; test: In vivo splenic dendritic cell activation; set-up: species or system mice; details: versus antibody treated groups
Description: For each panel, the samples are (left to right): untreated, sheep RBCs, αCD47 (MIAP301), αSIRPα (P84), mSIRPα-Fc-CD40L, mSIRPα-Fc-CD40L (24 Hrs), and αCD47 (MIAP301) (24 hrs). FIG. 9B is a quantitation of in vivo dendritic cell activation corresponding to FIG. 9A. Shown is the absolute percent of CD4+ and CD8+ dendritic cells; also gated on CD11c and DC1R2. In FIG. 9B, for each panel, the samples are (left to right): untreated, sheep RBCs, αCD47 (MIAP301), αSIRPα (P84), SIRPα-Fc-CD40L (150 μg), SIRPα-Fc-CD40L (300 μg), SIRPα-Fc-CD40L (300 μg) (24 Hrs), and αCD47 (MIAP301) (24 hrs).
An in vivo assay to examine SIRPα/CD47 function in mice was describe in Yi et al., “Splenic Dendritic Cells Survey Red Blood Cells for Missing Self-CD47 to Trigger Adaptive Immune Responses. Immunity. 2015;43(4):764-75) (the contents of which is incorporated by reference in its entirety). This assay detects the activation status of splenic dendritic cells in response to SIRPa/CD47 inhibitors or to infused sheep red blood cells (RBC).
After 6 or 24 hours, mice were euthanized and their spleens excised, dissociated, and assessed by flow cytometry for populations of activated CD4+ dendritic cells (DCs) (FIG. 9A, left panel) or CD8+dendritic cells (FIG. 9A, right panel); both populations of dendritic cells were also positive for MHC II (I-Ab), CD11c, and DC1R2.

[4] = tested on: low Her2-expressing breast cancer cell line (MCF7); test: Macrophage engulfment of MCF7 cells; assay type: cell-based, human; details: HER2LOW cell line MCF7
[5] = tested on: parental CHOK1 cells; test: Flow cytometry binding to parental CHOK1 cells
Text: Scale is shown and yellow arrows correspond with each identified monomer. A schematic of the hexamer species is shown to the right, depicting dimerization of the Fc domain and trimerization of the CD40L domain. […] Recombinant hSIRPα-Fc, hCD40L-Fc, and hIgG1 were used as positive controls. […] In both panels, the CHOK1 Parental is on the left and the CHOK1/hCD47 is on the right. […] For both graphs, the CHOK1 Parental is on the bottom. […] In this figure, the control is the top curve, the SIRPα-Fc-CD40L is the middle curve, and the anti-CD47 is the bottom curve.
The extracellular domain (ECD) of SIRPα and the ECD of CD40L were fused via an antibody Fc domain to generate SIRPαECD-Fc-CD40LECD chimeric proteins. When human proteins were used, the chimeric protein is referred to as hSIRPα-Fc-CD40L; when murine proteins were used, the chimeric protein is referred to as and mSIRPα-Fc-CD40L. […] The purified protein was then analyzed for the presence of each individual domain by Western blotting using anti-SIRPα, anti-Fc, and anti-CD40L antibodies (FIG. 3A, bottom). […] Next, binding affinities for SIRPα-Fc-CD40L to recombinant CD47, CD40, or Fc receptors were evaluated by surface plasmon resonance (SPR). […] A functional ELISA evaluated whether SIRPα-Fc-CD40L could outcompete a commercially available single-sided SIRPα-Fc control for binding to recombinant CD47 (FIG. 3H).

simultaneous binding to recombinant hCD47 and recombinant hCD40 [2]: simultaneous binding
Substance: SIRPα-Fc-CD40L: Generic name of the SIRPα ECD-Fc-CD40L ECD chimeric protein; human or murine version depending on the test system
macrophage activation (CD80, CD86) and expression of type I interferon genes (IFNα1, IFNβ1) [1]: induced macrophage activation and the expression of type I interferon genes
proportion of overall splenic DCs [3]: higher proportion of overall splenic DCs than was observed in the antibody treated groups
phagocytosis [4]: demonstrated monotherapy activity
binding to parental CHOK1 cells [5]: not to parental CHOK1 cells
